IC50 data for 16 compounds are collected here from patent US11667645B2, “Granzyme B directed imaging and therapy” (CytoSite Biopharma Inc., priority 2018, dated 2023).

The assay has as its target Granzyme B (human lymphocytes) (Homo sapiens (Human), UniProt P10144). The assay can be described thus: human Granzyme B biochemical assay. Particulars: Granzyme B (human lymphocytes) 5 nM, substrate Ac-IETD-AFC 200 μM, Cpd incubation with enzyme 30 mins, 22° C., read time 60 mins; read-out: IC50. From the text:
The compounds of Formula I-VIII described above can be tested using the human Granzyme B biochemical assay provided below.
Materials: • 1. Granzyme B (human lymphocytes) Enzyme: Enzo Lifesciences, Cat #ALX-200-602-0010 • 2. Substrate (Ac-IETD-AFC): Enzo Lifesciences, Cat #ALX-260-110-M010 • 3. Standard inhibitor (Compound 20-Isomer3): Synthesized internally in TCG • 4. Dimethyl sulfoxide (DMSO): Sigma-Aldrich, Cat #41639 • 5. HEPES: Gibco, Cat #15630-080 • 6. Calcium chloride: Sigma-Aldrich, Cat #C-5080 • 7. Distilled water: Gibco, Cat #15230-162 • 8. Bovine serum albumin (BSA): Sigma-Aldrich, Cat #A3059 • 9. Black, clear bottom PDL plate (384 wells): Greiner bio-one, Cat #781946 • 10. Polypropylene plate (384 wells): Corning, Cat #3657 Assay Buffer Composition:
Compound Preparation: • 1. DMSO is added to the respective compound vial to make 10 mM Compound stock solution, which is stored at −20° C. • 2. 10 mM Compound stock solution is thawed and 1 mM DMSO stock solution is prepared by adding 45 μl of DMSO to 5 μl of 10 mM compound stock solution. • 3. 1 mM DMSO stock solution is serially diluted (3.16 fold) by adding 10 μl of 1 mM DMSO stock to 21.6 μl of DMSO and mixed well. 10 μl of the resulting solution is then added to 21.6 μl of DMSO and mixed well. This process is continued to create 11 dilution points for the assay standard inhibitor and 8 dilution points for test compounds in 384 well polypropylene plate. • 4. 2 μl of each dilution are dispensed in assay ready plate. • 5. Each well is then diluted 25 fold by adding 48 μl of assay buffer to 2 μl of compound in assay ready plate to make Compound working stock. Enzyme Preparation: • 1. Supplied Granzyme B (human lymphocytes) enzyme is reconstituted to 1 mg/ml (about 31.25 μM) and 1 μl aliquots are kept in −80° C. • 2. 1 μl aliquot is diluted to 625 nM by adding 49 μl of assay buffer containing 0.1% BSA and gently mixed. • 3. 10 nM enzyme working stock is prepared by adding assay buffer containing 0.1% BSA. Substrate Preparation: • 1. Supplied substrate (Ac-IETD-AFC) is reconstituted by adding DMSO to make 10 mM stock, aliquoted and stored in −80° C. • 2. 4 mM substrate mid stock is prepared by adding DMSO. • 3. Substrate working stock i.e. 800 μM is prepared by adding assay buffer. Assay Protocol: • 1. 10 μl of serially diluted Compound working stock (start dose 40 μM) is added from assay ready plate to assay plate according to the plate map. • 2. Positive control (40 μM of standard inhibitor) and negative control (4% DMSO buffer) are added to the respective wells. • 3. 20 μl of Enzyme working stock is added to assay plate and gently mixed. • 4. The plate is incubated at 22° C. for 30 mins and spun at 130 g for 1 minute. • 5. After incubation, 10 μl of Substrate working stock is added to respective wells and mixed (Assay plate is maintained in dark after substrate addition). • 6. The plate is incubated at 22° C. for 60 mins and spun at 130 g for 1 minute. • 7. Fluorescence read (RFU) (Ex: 400 nm/Em: 505 nm) is taken after 60 mins in EnVision Multimode plate reader. Final Assay Concentration:
Data Analysis: • 1. The RFU read is analyzed to calculate percent inhibition by normalizing with positive and negative controls taken as 100% and 0% effect respectively in Microsoft excel. • 2. Graph is generated by putting the analyzed data in GraphPad prism 5.0 software to get IC50 value for each compound.

Sequence of Granzyme B (human lymphocytes) (P10144 21-247): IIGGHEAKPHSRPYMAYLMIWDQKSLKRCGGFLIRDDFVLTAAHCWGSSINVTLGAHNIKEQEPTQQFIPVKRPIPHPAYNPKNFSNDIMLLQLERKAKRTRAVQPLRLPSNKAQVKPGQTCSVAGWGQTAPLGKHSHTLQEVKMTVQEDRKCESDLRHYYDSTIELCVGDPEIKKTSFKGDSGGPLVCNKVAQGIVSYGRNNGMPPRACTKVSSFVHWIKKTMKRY

A word on the IC50: it is the midpoint of a concentration-inhibition curve. As for `CC(C)C[C@H](NC(=O)Cc1csc2ccccc12)C(=O)N[C@H]1CCc2cccc3c2N(C1=O)[C@H](C(=O)NCc1c[nH]nn1)C3` [Compound C005, (2S,5S)-5-[(S)-2-(2-Benzo[b]thiophen-3-yl-acetylamino)-4-methyl-pentanoylamino]-4-oxo-1,2,4,5,6,7-hexahydro-azepino[3,2,1-hi]indole-2-carboxylic acid (1H-[1,2,3]triazol-4-ylmethyl)-amide], the IC50 lay within 1 to 5 µM. As for `C[C@H](NC(=O)c1ccccc1)C(=O)N[C@H]1CCc2cccc3c2N(C1=O)[C@H](C(=O)NCc1c[nH]nn1)C3` [Compound C035, (2S,5S)-5-((S)-2-Benzoylamino-propionylamino)-4-oxo-1,2,4,5,6,7-hexahydro-azepino[3,2,1-hi]indole-2-carboxylic acid (1H-[1,2,3]triazol-4-ylmethyl)-amide], the figure is more than 5 µM; as for `CC[C@H](C)[C@H](NC(=O)COCCF)C(=O)N[C@H]1CCc2cccc3c2N(C1=O)[C@H](C(=O)NCc1cocn1)C3` [Compound C114, (2S,5S)-5-{(2S,3S)-2-[2-(2-Fluoro-ethoxy)-acetylamino]-3-methyl-pentanoylamino}-4-oxo-1,2,4,5,6,7-hexahydro-azepino[3,2,1-hi]indole-2-carboxylic acid (oxazol-4-ylmethyl)-amide], more than 5 µM; as for `CC[C@H](C)[C@H](NC(=O)COCCF)C(=O)N[C@H]1CCc2cccc3c2N(C1=O)[C@H](C(=O)NCc1cncs1)C3` [Compound C112, (2S,5S)-5-{(2S,3S)-2-[2-(2-Fluoro-ethoxy)-acetylamino]-3-methyl-pentanoylamino}-4-oxo-1,2,4,5,6,7-hexahydro-azepino[3,2,1-hi]indole-2-carboxylic acid (thiazol-5-ylmethyl)-amide], more than 5 µM.

For `N[C@H]1CCc2cccc3c2N(C1=O)[C@H](C(=O)NCc1c[nH]nn1)C3` [Compound C147, (2S,5S)-5-Amino-4-oxo-1,2,4,5,6,7-hexahydro-azepino[3,2,1-hi]indole-2-carboxylic acid (1H-[1,2,3]triazol-4-ylmethyl)-amide], the IC50 was more than 5 µM. As for `CC[C@H](C)[C@H](NC(=O)c1ccc(OC)cc1)C(=O)N[C@H]1CCc2cccc3c2N(C1=O)[C@H](C(=O)NCc1c[nH]nn1)C3` [Compound C062, (2S,5S)-5-[(2S,3S)-2-(4-Methoxy-benzoylamino)-3-methyl-pentanoylamino]-4-oxo-1,2,4,5,6,7-hexahydro-azepino[3,2,1-hi]indole-2-carboxylic acid(1H-[1,2,3]triazol-4-ylmethyl)-amide], the figure is 0.001 to 0.3 µM; as for `CC(C)(NC(=O)Cc1csc2ccccc12)C(=O)N[C@H]1CCc2cccc3c2N(C1=O)[C@H](C(=O)NCc1c[nH]nn1)C3` [Compound C044, (2S,5S)-5-[2-(2-Benzo[b]thiophen-3-yl-acetylamino)-2-methyl-propionylamino]-4-oxo-1,2,4,5,6,7-hexahydro-azepino[3,2,1-hi]indole-2-carboxylic acid (1H-[1,2,3]triazol-4-ylmethyl)-amide], more than 5 µM. With `C[C@H](NC(=O)Cc1csc2ccccc12)C(=O)N[C@H]1CCc2cccc3c2N(C1=O)[C@H](C(=O)NCc1c[nH]nn1)C3` [Compound C002, (2S,5S)-5-[(S)-2-(2-Benzo[b]thiophen-3-yl-acetylamino)propionylamino]-4-oxo-1,2,4,5,6,7-hexahydro-azepino[3,2,1-hi]indole-2-carboxylic acid (1H-[1,2,3]triazol-4-ylmethyl)amide], the IC50 was in the range of 1 to 5 µM.

With `O=C(Cc1csc2ccccc12)N[C@@H](Cc1ccc(O)cc1)C(=O)N[C@H]1CCc2cccc3c2N(C1=O)[C@H](C(=O)NCc1c[nH]nn1)C3` [Compound C010, (2S,5S)-5-[(S)-2-(2-Benzo[b]thiophen-3-yl-acetylamino)-3-(4-hydroxy-phenyl)-propionylamino]-4-oxo-1,2,4,5,6,7-hexahydro-azepino[3,2,1-hi]indole-2-carboxylic acid (1H-[1,2,3]triazol-4-ylmethyl)-amide], the IC50 is more than 5 µM.

On to `O=C(Cc1csc2ccccc12)NCC(=O)N[C@H]1CCc2cccc3c2N(C1=O)[C@H](C(=O)NCc1c[nH]nn1)C3` [Compound C001, (2S,5S)-5-[2-(2-Benzo[b]thiophen-3-yl-acetylamino)-acetylamino]-4-oxo-1,2,4,5,6,7-hexahydro-azepino[3,2,1-hi]indole-2-carboxylic acid (1H-[1,2,3]triazol-4-ylmethyl)-amide], for which the IC50 was more than 5 µM. Take `O=C(Cc1csc2ccccc12)N[C@H](C(=O)N[C@H]1CCc2cccc3c2N(C1=O)[C@H](C(=O)NCc1c[nH]nn1)C3)C1CCCC1` [Compound C075, (2S,5S)-5-[(S)-2-(2-Benzo[b]thiophen-3-yl-acetylamino)-2-cyclopentyl-acetylamino]-4-oxo-1,2,4,5,6,7-hexahydro-azepino[3,2,1-hi]indole-2-carboxylic acid (1H-[1,2,3]triazol-4-ylmethyl)-amide]: the IC50 lay within 0.001 to 0.3 µM. Consider `CC[C@H](C)[C@H](NC(=O)COCCF)C(=O)N[C@H]1CCc2cccc3c2N(C1=O)[C@H](C(=O)NCc1cccnc1)C3` [Compound C122, (2S,5S)-5-{(2S,3S)-2-[2-(2-Fluoro-ethoxy)-acetylamino]-3-methyl-pentanoylamino}-4-oxo-1,2,4,5,6,7-hexahydro-azepino[3,2,1-hi]indole-2-carboxylic acid (pyridin-3-ylmethyl)-amide], for which the IC50 is more than 5 µM. Consider `O=C(N[C@@H](Cc1ccc(F)cc1)C(=O)N[C@H]1CCc2cccc3c2N(C1=O)[C@H](C(=O)NCc1c[nH]nn1)C3)c1ccccc1` [Compound C043, (2S,5S)-5-[(S)-2-Benzoylamino-3-(4-fluoro-phenyl)-propionylamino]-4-oxo-1,2,4,5,6,7-hexahydro-azepino[3,2,1-hi]indole-2-carboxylic acid (1H-[1,2,3]triazol-4-ylmethyl)-amide], for which the IC50 was more than 5 µM.

In the case of `CC[C@H](C)[C@H](NC(=O)Cc1nc2ccccc2[nH]1)C(=O)N[C@H]1CCc2cccc3c2N(C1=O)[C@H](C(=O)NCc1c[nH]nn1)C3` [Compound C162, (2S,5S)-5-[(2S,3S)-2-(2-1H-Benzoimidazol-2-yl-acetylamino)-3-methyl-pentanoylamino]-4-oxo-1,2,4,5,6,7-hexahydro-azepino[3,2,1-hi]indole-2-carboxylic acid (1H-[1,2,3]triazol-4-ylmethyl)-amide], the IC50 fell in the range of 0.001 to 0.3 µM.

Consider `O=C(Cc1csc2ccccc12)N[C@@H](Cc1ccccc1)C(=O)N[C@H]1CCc2cccc3c2N(C1=O)[C@H](C(=O)NCc1c[nH]nn1)C3` [Compound C004, (2S,5S)-5-[(S)-2-(2-Benzo[b]thiophen-3-yl-acetylamino)-3-phenyl-propionylamino]-4-oxo-1,2,4,5,6,7-hexahydro-azepino[3,2,1-hi]indole-2-carboxylic acid (1H-[1,2,3]triazol-4-ylmethyl)-amide], for which the IC50 was more than 5 µM. For the compound `Cc1ccccc1C(=O)N[C@H](C(=O)N[C@H]1CCc2cccc3c2N(C1=O)[C@H](C(=O)NCc1c[nH]nn1)C3)C(C)C` [Compound C050, (2S,5S)-5-[(S)-3-Methyl-2-(2-methyl-benzoylamino)-butyrylamino]-4-oxo-1,2,4,5,6,7-hexahydro-azepino[3,2,1-hi]indole-2-carboxylic acid (1H-[1,2,3]triazol-4-ylmethyl)-amide], the IC50 is 0.001 to 0.3 µM.
